Data set [1] concerns adult human dermal fibroblast. Kind of data set: Screening experiment of adult human dermal fibroblast survival in medium without serum with 1 nM PDGF-BB. In kind it is cell-based. The following applies: 6 days of incubation.
Data set [2] deals with Adult human dermal fibroblasts CF31 cells. Put plainly: Fibroblast metabolism (XTT) assay with 1 nM PDGF-BB, 6 days. Type of data set: cell-based. Particulars: for promotion of survival of adult human dermal fibroblasts in the presence of PDGF-BB: FIG. 4, XTT; for bioactivity as determined by fibroblast metabolism assay: FIG. 2, XTT OD 450 nm. As for the experimental part: Adult human dermal fibroblasts CF31 cells at 1000 cells/well were seeded in a collagen-coated 96-well plate in DMEM overnight, then 1 nM PDGF-BB with peptides at indicated doses was added and cells were incubated at 37° C. for 6 days. Then cell metabolism was measured by XTT assay by reading OD at 450 nm. Each point represents the mean of 6 replicates with a typical SD=5-10% around the mean (not shown for graft clarity).
Adult human dermal fibroblasts, CF31, at 1000 cells/well were incubated at 37° C. in a collagen-coated 96-well plate with DMEM, 1 nM PDGF-BB with peptides at indicated doses for 6 days and then cell metabolism was measured by XTT assay, reading OD at 450 nm. Data represent the mean of 6 replicates.
P12, P46, cNP7 and cNP8 were compared for their ability to promote the survival of adult human dermal fibroblasts in the presence of PDGF-BB. Adult human dermal fibroblasts at 1000 cells/well were incubated in a collagen-coated 96-well plate with DMEM, 1 nM PDGF-BB with peptides at indicated doses for 6 days and then cell metabolism was measured by XTT assay. Data represent the mean of 6 replicates (FIG. 4).

The next data set addresses PDGF-BB (Homo sapiens, UniProt P01127). Put plainly: Surface plasmon resonance (Biacore) binding to growth factor. The following applies: plasmon surface resonance (Biacore T200). On the procedure: (§1) To study the binding activities of these peptides, real time interactions of P12, P46, and cNP8 with growth factors were determined by plasmon surface resonance (Biacore T200).
In the Biacore2000 system, binding constants from kinetic data are determined by passing varying concentrations of FN peptides (analytes) over chip surfaces which are coupled with PDGF-BB (ligand), respectively. All kinetic experiments are carried out at 20° C. at a flow rate of 20 μl/min. For mass transport experiments, each analyte is injected at a fixed concentration and run at flow rates ranging from 5 to 75 μl/min. All analytes are injected over PDGF-BB ligand surfaces as well as over a control surface for 120 s, followed by 300 s of dissociation in running buffer. Regeneration of the sensor chip for subsequent injections is accomplished by pulse of 0.1% SDS. Mass transport experiments have detected little difference in response at different flow rates thus validating data from kinetic experiments. Sensorgrams are prepared and globally fitted using nonlinear least-squares analysis and numerical integration of the differential rate equations with the Biacore Bioevaluation software. […] Each data set, which consists of a series of sensorgrams from injections of different concentration of analyte over the same surface, is analyzed using kinetic models from Bioevaluation software.

The target in data set [3] is Transforming Growth Factor-Beta1 (TGF-β1) (Homo sapiens, UniProt P01137). Described as above. The following applies: plasmon surface resonance (Biacore T200). On the procedure: as §1
Chain of Transforming Growth Factor-Beta1 (TGF-β1) (P01137 279-390 limits assumed, species assumed): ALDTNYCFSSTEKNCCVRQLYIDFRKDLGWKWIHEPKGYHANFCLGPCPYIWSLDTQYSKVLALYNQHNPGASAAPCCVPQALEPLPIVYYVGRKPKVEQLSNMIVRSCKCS
For data set [4], the target named is epidermal growth factor (EGF) (Homo sapiens, UniProt P01133). Described as above. Particulars: plasmon surface resonance (Biacore T200). On the procedure: as §1
Chain of epidermal growth factor (EGF) (P01133 971-1023 limits assumed, species assumed): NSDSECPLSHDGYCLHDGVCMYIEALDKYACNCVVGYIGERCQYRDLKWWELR
Data set [5] deals with insulin-like growth factor-1 (IGF-1) (Homo sapiens, UniProt P05019). Described as above. The following applies: plasmon surface resonance (Biacore T200). As for the experimental part: as §1
Chain of insulin-like growth factor-1 (IGF-1) (P05019 49-118, species assumed): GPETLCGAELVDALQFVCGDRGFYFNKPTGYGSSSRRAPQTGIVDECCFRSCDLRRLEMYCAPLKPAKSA
Data set [6] addresses T1, human neutrophil elastase (Homo sapiens, UniProt P08246).
T1 sequence (P08246 30-267): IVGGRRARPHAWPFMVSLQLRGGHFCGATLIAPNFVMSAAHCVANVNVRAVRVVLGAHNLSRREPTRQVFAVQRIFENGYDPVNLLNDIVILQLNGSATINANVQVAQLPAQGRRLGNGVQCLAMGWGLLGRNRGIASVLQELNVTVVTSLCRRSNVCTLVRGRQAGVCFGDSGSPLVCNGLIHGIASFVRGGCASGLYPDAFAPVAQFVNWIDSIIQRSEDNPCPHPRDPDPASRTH
Procedure: P46 was incubated with purified human neutrophil elastase at 1:100 enzyme:substrate molar ratio at 37° C. for 4 h (3A) or 24 h (3B). Peptides stability was determined by MALDI-TOF analysis.
Peptides' stability was determined by MALDI-TOF analysis.
The reaction was stopped with formic acid and the reaction mixture was analyzed by mass spectroscopy.
To determine the sensitivity of P46 to elastase digestion, P46 was synthesized and digested with elastase. […] P46 was incubated with purified human neutrophil elastase at 1:100 enzyme:substrate molar ratio at 37° C. for 4 h (FIG. 3A) or 24 h (FIG. 3B). The elastase-generated smaller peptides were determined by MALDI-TOF analysis.
Peptide's stability was determined by MALDI-TOF analysis.

Data set [7] deals with human neutrophil elastase. Put plainly: purified human neutrophil elastase. The following applies: up to 24 h.

Entries after “also recorded” stand apart in the source; their conditions may differ.

Chain of PDGF-BB (P01127 82-190 limits assumed): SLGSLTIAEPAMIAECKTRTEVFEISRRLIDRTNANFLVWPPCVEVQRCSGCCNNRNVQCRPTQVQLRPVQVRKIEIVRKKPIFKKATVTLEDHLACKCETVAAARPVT

With “HIGKYGLRWRPKGSV (polypeptide according to formula I) [NP8, engineered peptide designed from P46]”, in data set [1], the “biological activity on screening experiment of fibroblast survival” value (“biological activity” below) is “best biological activity”.

Regarding “HIGKYGLRWRPKNSV [cNP7, cyclic form of engineered peptide NP7]”, in data set [2], the “promotion of survival of adult human dermal fibroblasts in the presence of PDGF-BB” value was “promoted the survival of adult human dermal fibroblasts”.

Regarding “HISKYILGWRPKNSV (NP9 peptide) [engineered peptide designed from P46]”, the “biological activity” value in data set [1] is on record as “minimal biological activity”.

Consider “HISKYILRGRPKNSV (NP10 peptide) [engineered peptide designed from P46]”, for which, in data set [1], the “biological activity” value was “minimal biological activity”.

Turning to “HISKYILRWGPKNSV (NP11 peptide) [engineered peptide designed from P46]”, in data set [1], the “biological activity” value was “minimal biological activity”.

“HISKYILRWRPKNSV (polypeptide according to formula I) [P46]”: in data set [2], the “bioactivity as determined by fibroblast metabolism assay” value is given as “much higher bioactivity than that of P12” and the “promotion of survival of adult human dermal fibroblasts in the presence of PDGF-BB” value is “promoted the survival of adult human dermal fibroblasts”. Also, the “binding to PDGF-BB” value with PDGF-BB is “bind”. Besides, in data set [3], the “binding to TGF-β1” value is reported as “bind”. Besides, in data set [4], the “binding to EGF” value is given as “did not bind”. The “binding to IGF-1” value in data set [5] is “did not bind”. Besides, in data set [6], the “sensitivity to elastase digestion” value is on record as “retained some sensitivity to elastase digestion”.

PSHISKYILRWRPK: the fragment found result in data set [7] is “KYILRWRPKPSHIS; also recorded: RWRPKPSHISKYIL”.

On to PSHISKYILRWRPK [cP12], for which, in data set [6], the “degradation by neutrophil elastase” value was “remain sensitive to this endopeptidase” and the “number of elastase-cleavage sites” value is reported as “five”.

For “SKYILRWRPKNSV (P45 peptide) [peptide produced by elastase digestion of FN III1-C]”, the “bioactivity as determined by fibroblast metabolism assay” value in data set [2] is “little bioactivity”.

Turning to “cyclo(HIGKYGLRWRPKGSV) (SMILES CC[C@H](C)[C@@H]1NC(=O)[C@H](Cc2c[nH]cn2)NC(=O)[C@H](C(C)C)NC(=O)[C@H](CO)NC(=O)CNC(=O)[C@H](CCCCN)NC(=O)[C@@H]2CCCN2C(=O)[C@H](CCCNC(=N)N)NC(=O)[C@H](Cc2c[nH]c3ccccc23)NC(=O)[C@H](CCCNC(=N)N)NC(=O)[C@H](CC(C)C)NC(=O)CNC(=O)[C@H](Cc2ccc(O)cc2)NC(=O)[C@H](CCCCN)NC(=O)CNC1=O)”, in data set [7] (37° C.), the not cleaved entry is given as “A large majority of intact peptide was retained at 24 h”.

The record behind these values is US11548935B2 (NeoMatrix Therapeutics Inc., priority 2016, dated 2023).
